Measurements published in ChEMBL document CHEMBL2074416, “High-affinity interaction of tyrosine kinase inhibitors with the ABCG2 multidrug transporter” (Mol Pharmacol, 2004).

What was measured:
[1] = molecular target: T1, Broad substrate specificity ATP-binding cassette transporter ABCG2 (Homo sapiens, UniProt Q9UNQ0); test: TP_TRANSPORTER: efflux of Hoechst33342 in BCRP-expressing Sf9 cells; format: functional
T1 sequence (Q9UNQ0 whole entry): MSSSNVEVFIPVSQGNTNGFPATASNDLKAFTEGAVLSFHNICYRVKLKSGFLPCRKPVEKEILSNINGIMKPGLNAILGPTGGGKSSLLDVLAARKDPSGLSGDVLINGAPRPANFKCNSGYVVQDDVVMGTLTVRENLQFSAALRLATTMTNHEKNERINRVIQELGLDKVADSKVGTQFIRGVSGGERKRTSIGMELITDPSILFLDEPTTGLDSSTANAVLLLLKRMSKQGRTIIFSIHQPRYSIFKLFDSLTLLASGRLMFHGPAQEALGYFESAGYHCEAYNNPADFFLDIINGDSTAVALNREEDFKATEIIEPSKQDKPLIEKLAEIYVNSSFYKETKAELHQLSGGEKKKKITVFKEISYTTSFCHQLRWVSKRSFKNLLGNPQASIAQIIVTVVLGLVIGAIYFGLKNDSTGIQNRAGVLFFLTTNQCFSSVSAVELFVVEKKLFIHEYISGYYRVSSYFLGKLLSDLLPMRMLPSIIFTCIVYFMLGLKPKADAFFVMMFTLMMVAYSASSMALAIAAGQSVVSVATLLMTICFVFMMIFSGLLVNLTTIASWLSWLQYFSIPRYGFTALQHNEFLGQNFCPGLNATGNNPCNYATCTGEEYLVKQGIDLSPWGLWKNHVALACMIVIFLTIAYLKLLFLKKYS

[2] = molecular target: T1, Broad substrate specificity ATP-binding cassette transporter ABCG2; test: TP_TRANSPORTER: stimulation of ATPase activity (0.1~1 u M) in BCRP-expressing Sf9 cells; format: functional, cell membranes, Membrane

Row | SMILES | IC50 [1] | Activity [2]
1 | CC#CC(=O)Nc1ccc2ncnc(Nc3cccc(Br)c3)c2c1 | 200 nM | inhibitor []
2 | COc1cc2ncnc(Nc3ccc(F)c(Cl)c3)c2cc1OCCCN1CCOCC1 [GEFITINIB] | – | inhibitor []
